Results published in ChEMBL document CHEMBL6134890, “Terminally Symmetric β-Turn Peptides for Multidrug-Resistant Bacterial Infections” (J Med Chem, 2025).
Converted amounts (≈) assume the structure as drawn. The source made the active and inactive calls. The rule behind the calls is not given here. Peptide text beside a SMILES is read from it.

Assays:
[1] = tested on: Escherichia coli; assay: Antimicrobial activity against multi-drug resistant Escherichia coli assessed as reduction in bacterial growth by broth dilution method; assay type: functional
[2] = tested on: Escherichia coli; assay: Antibacterial activity against multidrug resistant Escherichia coli infected in male Kunming mouse model assessed as reduction in wound size measured after 3 to 5 days by caliper method; assay type: functional, organism-based; conditions: time 3-5 day
[3] = Hemolytic activity in human Red blood cell assessed as hemolysis incubated for 1 hrs by microplate reader based analysis; assay type: toxicity; conditions: erythrocyte
[4] = tested on: Acinetobacter baumannii; assay: Antimicrobial activity against multi-drug resistant Acinetobacter baumannii assessed as reduction in bacterial growth by broth dilution method; assay type: functional
[5] = tested on: BEAS-2B; assay: Cytotoxicity against human BEAS-2B cells at 2 to 256 uM measured after 24 hrs by CCK-8 method; assay type: toxicity, cell-based; conditions: dose 2-256 µM
[6] = tested on: Staphylococcus aureus; assay: Antibiofilm activity in methicillin-resistant Staphylococcus aureus assessed as eradication of formed biofilm at 1 to 4 times MIC measured after 12 hrs by confocal microscopy based analysis; assay type: functional, organism-based
[7] = tested on: Escherichia coli; assay: Antibacterial activity against multidrug resistant Escherichia coli infected in male Kunming mouse model assessed as reduction in vascular congestion in presence of levofloxacin by H and E staining based analysis; assay type: functional, organism-based
[8] = tested on: Escherichia coli; assay: Antibiofilm activity against multi-drug resistant Escherichia coli measured after 24 hrs by crystal violet staining based analysis; assay type: functional, organism-based
[9] = tested on: Staphylococcus aureus; assay: Antimicrobial activity against Staphylococcus aureus ATCC 25923 assessed as reduction in bacterial growth by broth dilution method; assay type: functional
[10] = tested on: HEK-293T; assay: Cytotoxicity against HEK293T cells at 2 to 256 uM measured after 24 hrs by CCK-8 method; assay type: toxicity, cell-based; conditions: human, dose 2-256 µM
[11] = tested on: Escherichia coli; assay: Antibacterial activity against multidrug resistant Escherichia coli infected in male Kunming mouse model assessed as reduction in IL-6 expression by immunochemical analysis; assay type: functional, organism-based
[12] = tested on: Staphylococcus aureus; assay: Antibacterial activity against Staphylococcus aureus ATCC 25923 at sub-inhibitory concentration measured after 15 passages for 18 hrs; assay type: functional
[13] = tested on: Cell membrane; assay: Induction of cytoplasmic membrane depolarization in multi-drug resistant Staphylococcus aureus at 1 to 4 times MIC measured within 1 min by DiSC3-5 fluorescent dye based analysis
[14] = tested on: Staphylococcus aureus; assay: Antimicrobial activity against multi-drug resistant Staphylococcus aureus assessed as reduction in bacterial growth in presence of FeCl3; assay type: functional, organism-based
[15] = tested on: Staphylococcus aureus; assay: Antimicrobial activity against multi-drug resistant Staphylococcus aureus assessed as reduction in bacterial growth by broth dilution method; assay type: functional
[16] = tested on: Escherichia coli; assay: Antimicrobial activity against multi-drug resistant Escherichia coli assessed as reduction in bacterial growth at 2 times MIC measured after 1 hrs in presence of trypsin by microplate reader based analysis; assay type: functional, organism-based
[17] = tested on: Staphylococcus aureus; assay: Bactericidal activity against multi-drug resistant Staphylococcus aureus assessed as eradication of bacterial growth at 2 times MIC by time-kill kinetic assay; assay type: functional, organism-based; conditions: time 120-720 min
[18] = tested on: Cell membrane; assay: Disruption of cell membrane in multi-drug resistant Staphylococcus aureus assessed as increase in red fluorescence intensity of PI at 2 times MIC measured for 2 hrs by fluorescence confocal microscopic imaging based analysis; assay type: subcellular
[19] = tested on: Staphylococcus aureus; assay: Additive antimicrobial activity against multi-drug resistant Staphylococcus aureus assessed as fractional inhibition concentration index in presence levofloxacin by microplate reader analysis; assay type: functional
[20] = tested on: Escherichia coli; assay: Antibacterial activity against multidrug resistant Escherichia coli infected in male Kunming mouse model assessed as reduction in tissue hemorrhage by H and E staining based analysis; assay type: functional, organism-based
[21] = tested on: Escherichia coli; assay: Antibacterial activity against Escherichia coli […] at sub-inhibitory concentration measured after 15 passages for 18 hrs; assay type: functional, organism-based
[22] = tested on: Escherichia coli; assay: Antibacterial activity against multidrug resistant Escherichia coli infected in male Kunming mouse model assessed as reduction in inflammatory cell infiltration in presence of levofloxacin by H and E staining based analysis; assay type: functional, organism-based
[23] = tested on: Escherichia coli; assay: Antimicrobial activity against multi-drug resistant Escherichia coli assessed as reduction in bacterial growth in presence of KCl; assay type: functional, organism-based
[24] = tested on: Escherichia coli; assay: Antibacterial activity against multidrug resistant Escherichia coli infected in male Kunming mouse model assessed as reduction in epidermal thickening in presence of levofloxacin by H and E staining based analysis; assay type: functional, organism-based
[25] = tested on: Escherichia coli; assay: Antibacterial activity against multidrug resistant Escherichia coli infected in male Kunming mouse model assessed as scabs thickening measured after 7 days in presence of levofloxacin by caliper method; assay type: functional, organism-based; conditions: time 7.0 day
[26] = tested on: Escherichia coli; assay: Antibacterial activity against multidrug resistant Escherichia coli infected in male Kunming mouse model assessed as wound healing measured after 11 days by caliper method relative to control; assay type: functional; conditions: time 11 day
[27] = tested on: Escherichia coli; assay: Antimicrobial activity against multi-drug resistant Escherichia coli assessed as reduction in bacterial growth measured after 6 hrs in 25% plasma; assay type: functional, organism-based
[28] = Half life of the compound in 25% plasma; assay type: ADME, cell-free
[29] = tested on: Escherichia coli; assay: Bactericidal activity against multi-drug resistant Escherichia coli at 1 times MIC preincubated with LPS for 1 hrs followed by bacterial addition and measured after 18 hrs by microplate reader based analysis; assay type: functional, organism-based; conditions: time 19.0 hrs
[30] = tested on: Staphylococcus aureus; assay: Bactericidal activity against multi-drug resistant Staphylococcus aureus assessed as eradication of bacterial growth at 2 times MIC measured after 3 hrs by time-kill kinetic assay relative to control; assay type: functional
[31] = tested on: Escherichia coli; assay: Antibiofilm activity in […] assessed as eradication of formed biofilm at 1 to 4 times MIC measured after 12 hrs by confocal microscopy based analysis; assay type: functional, organism-based

SMILES: CC[C@H](C)[C@H](NC(=O)[C@H](CCCCN)NC(=O)[C@@H](NC(=O)[C@H](CCCCN)NC(=O)[C@@H]1CCCN1C(=O)[C@H](Cc1c[nH]c2ccccc12)NC(=O)[C@H](Cc1c[nH]c2ccccc12)NC(=O)[C@H](Cc1c[nH]c2ccccc12)NC(=O)[C@@H]1CCCN1C(=O)[C@H](CCCCN)NC(=O)[C@@H](NC(=O)[C@H](CCCCN)NC(=O)[C@@H](NC(=O)[C@@H](N)CCCCN)[C@@H](C)CC)[C@@H](C)CC)[C@@H](C)CC)C(=O)N[C@@H](CCCCN)C(N)=O (H-KIKIKPWWWPKIKIK-NH2)
- MIC [1]: 4 µM (≈ 7.97 µg/mL)
- Activity [2]: Active
- HC10 [3]: > 256 µM
- MIC [4]: 4 µM (≈ 7.97 µg/mL)
- Activity [5]: Toxic
- Activity [6]: Active
- Activity [7]: Active
- Activity [8]: Dose-dependent-effect
- MIC [9]: 8 µM (≈ 15.9 µg/mL)
- Activity [10]: Toxic
- Activity [11]: Active
- Activity [12]: Active
- Activity [13]: Active
- Activity [14]: Active
- MIC [15]: 8 µM (≈ 15.9 µg/mL)
- Activity [16]: inactive
- Activity [17]: Time-dependent-effect
- Activity [18]: Active
- fractional inhibitory concentration index (FICI) [19]: 0.75
- Activity [20]: Active
- Activity [21]: Active
- Activity [22]: Active
- Activity [23]: Active
- Activity [24]: inactive
- Activity [25]: Active
- Activity [26]: 100%
- Activity [27]: Active
- half-life [28]: 75.5 h
- Activity [29]: inactive
- Activity [30]: 100%
- Activity [31]: Active
